The values below come from patent US8017602B2, “N-(2-(2-(5-hydroxy-3-oxo-3,4-dihydro-2H-benzo[b][1,4]oxazin-8-yl)ethylamino)ethyl)-3-(phenethoxy)propanamide derivatives, processes for their preparation, pharmaceutical compositions containing them and their use in therapy” (AstraZeneca AB, priority 2008, dated 2011).

Structures are written as SMILES. Where a name gives a salt, the structure may show the parent alone.

Assay [1] deals with T1, recombinant human adrenergic beta 1 receptors (Homo sapiens, UniProt P08588).
T1 construct: purchased Euroscreen
T1 sequence (P08588 whole entry): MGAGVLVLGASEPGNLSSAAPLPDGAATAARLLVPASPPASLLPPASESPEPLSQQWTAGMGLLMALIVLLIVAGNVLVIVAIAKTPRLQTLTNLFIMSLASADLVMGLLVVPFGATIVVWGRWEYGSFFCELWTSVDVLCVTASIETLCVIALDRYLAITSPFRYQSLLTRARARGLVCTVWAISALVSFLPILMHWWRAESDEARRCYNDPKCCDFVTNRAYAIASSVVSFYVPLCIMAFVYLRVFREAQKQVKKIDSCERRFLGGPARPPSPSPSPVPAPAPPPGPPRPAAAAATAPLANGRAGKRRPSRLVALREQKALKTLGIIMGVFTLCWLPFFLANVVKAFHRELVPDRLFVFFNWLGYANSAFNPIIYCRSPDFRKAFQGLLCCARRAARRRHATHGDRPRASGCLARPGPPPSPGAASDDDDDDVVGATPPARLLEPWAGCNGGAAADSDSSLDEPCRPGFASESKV
The assay is described as follows: Adrenergic β1 selectivity binding assay ([125I]-Iodocyanopindolol). The note with it: inhibition of [125I]-Iodocyanopindolol binding, human β1 membranes; read-out: β1 bind p IC50 (converted). As to the method:
Membranes containing recombinant human adrenergic beta 1 receptors were obtained from Euroscreen. These were diluted in Assay Buffer (50 mM HEPES, 1 mM EDTA, 120 mM NaCl, 0.1% gelatin, pH 7.4) to provide a final concentration of membranes that gave a clear window between maximum and minimum specific binding.
Assays were performed in U-bottomed 96-well polypropylene plates. 10 μL [^125I]-Iodocyanopindolol (0.036 nM final concentration) and 10 μL of test compound (10× final concentration) were added to each test well. For each assay plate 8 replicates were obtained for [^125I]-Iodocyanopindolol binding in the presence of 10 μl vehicle (10% (v/v) DMSO in Assay Buffer; defining maximum binding) or 10 μl Propranolol (10 μM final concentration; defining non-specific binding (NSB)). Membranes were then added to achieve a final volume of 100 μL. The plates were incubated for 2 h at room temperature and then filtered onto PEI coated GF/B filter plates, pre-soaked for 1 h in Assay Buffer, using a 96-well plate Tomtec cell harvester. Five washes with 250 μL wash buffer (50 mM HEPES, 1 mM EDTA, 120 mM NaCl, pH 7.4) were performed at 4° C. to remove unbound radioactivity. The plates were dried then sealed from underneath using Packard plate sealers and MicroScint-O (50 μl) was added to each well. The plates were sealed (TopSeal A) and filter-bound radioactivity was measured with a scintillation counter (TopCount, Packard BioScience) using a 3-minute counting protocol.
Total specific binding (B0) was determined by subtracting the mean NSB from the mean maximum binding. NSB values were also subtracted from values from all other wells. […] Data was fitted to a four parameter logistic equation to determine the compound potency, which was expressed as pIC50 (negative log molar concentration inducing 50% inhibition of [^125I]-Iodocyanopindolol binding).

The target in assay [2] is T2, recombinant human Dopamine Subtype D2s receptors (Homo sapiens, UniProt P14416).
T2 construct: purchased Perkin Elmer
T2 sequence (P14416 1-414 isoform P14416-2): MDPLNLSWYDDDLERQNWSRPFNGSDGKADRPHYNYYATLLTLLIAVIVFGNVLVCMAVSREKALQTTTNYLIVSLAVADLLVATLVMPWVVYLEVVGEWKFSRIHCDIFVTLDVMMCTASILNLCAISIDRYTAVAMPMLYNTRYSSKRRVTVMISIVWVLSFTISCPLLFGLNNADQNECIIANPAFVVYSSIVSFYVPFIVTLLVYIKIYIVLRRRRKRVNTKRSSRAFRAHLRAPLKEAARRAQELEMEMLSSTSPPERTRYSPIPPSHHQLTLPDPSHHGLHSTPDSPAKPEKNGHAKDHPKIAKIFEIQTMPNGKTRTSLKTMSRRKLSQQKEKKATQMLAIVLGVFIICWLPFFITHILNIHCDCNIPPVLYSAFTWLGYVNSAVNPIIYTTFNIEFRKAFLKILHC
Kind of assay: Dopamine D2 selectivity binding assay ([3H]-spiperone). Conditions: inhibition of [3H]-spiperone binding, human D2s membranes; read-out: D2 bind pIC50 (converted). How it is done: Membranes containing recombinant human Dopamine Subtype D2s receptors were obtained from Perkin Elmer. These were diluted in Assay Buffer (50 mM HEPES, 1 mM EDTA, 120 mM NaCl, 0.1% gelatin, pH 7.4) to provide a final concentration of membranes that gave a clear window between maximum and minimum specific binding.
Assays were performed in U-bottomed 96-well polypropylene plates. 30 μL [^3H]-spiperone (0.16 nM final concentration) and 30 μl of test compound (10× final concentration) were added to each test well. For each assay plate 8 replicates were obtained for [^3H]-spiperone binding in the presence of 30 μL vehicle (10% (v/v) DMSO in Assay Buffer; defining maximum binding) or 30 μl Haloperidol (10 μM final concentration; defining non-specific binding (NSB)). Membranes were then added to achieve a final volume of 300 μL. The plates were incubated for 2 h at room temperature and then filtered onto PEI coated GF/B filter plates, pre-soaked for 1 h in Assay Buffer, using a 96-well plate Tomtec cell harvester. Five washes with 250 μl wash buffer (50 mM HEPES, 1 mM EDTA, 120 mM NaCl, pH 7.4) were performed at 4° C. to remove unbound radioactivity. The plates were dried then sealed from underneath using Packard plate sealers and MicroScint-O (50 μl) was added to each well. The plates were sealed (TopSeal A) and filter-bound radioactivity was measured with a scintillation counter (TopCount, Packard BioScience) using a 3-minute counting protocol.
Total specific binding (B0) was determined by subtracting the mean NSB from the mean maximum binding. NSB values were also subtracted from values from all other wells. […] Data was fitted to a four parameter logistic equation to determine the compound potency, which was expressed as pIC50 (negative log molar concentration inducing 50% inhibition of [^3H]-spiperone binding).

On to `O=C1COc2c(CCNCCN(C(=O)CCOCCc3cccc(-c4cnco4)c3)C3CCCCC3)ccc(O)c2N1` [Example 10, N-Cyclohexyl-N-(2-(2-(5-hydroxy-3-oxo-3,4-dihydro-2H-benzo[b][1,4]oxazin-8-yl)ethylamino)ethyl)-3-(3-(oxazol-5-yl)phenethoxy)propanamide Trifluoroacetic Acid Salt], for which the IC50 in assay [1] is 6.31 µM; in assay [2], 1 µM.

In the case of `CCn1ccnc1-c1cccc(CCOCCC(=O)N(CCNCCc2ccc(O)c3c2OCC(=O)N3)C2CCCCC2)c1` [Example 29, N-Cyclohexyl-3-(3-(1-ethyl-1H-imidazol-2-yl)phenethoxy)-N-(2-(2-(5-hydroxy-3-oxo-3,4-dihydro-2H-benzo[b][1,4]oxazin-8-yl)ethylamino)ethyl)propanamide Trifluoroacetic Acid Salt], the IC50 was above 7.94 µM in assay [1] and 2 µM in assay [2].

For `CCn1cc(-c2cccc(CCOCCC(=O)N(CCNCCc3ccc(O)c4c3OCC(=O)N4)C3CCCCC3)c2)nn1` [Example 04, N-Cyclohexyl-3-(3-(1-ethyl-1H-1,2,3-triazol-4-yl)phenethoxy)-N-(2-(2-(5-hydroxy-3-oxo-3,4-dihydro-2H-benzo[b][1,4]oxazin-8-yl)ethylamino)ethyl)propanamide Trifluoroacetic Acid Salt], the IC50 in assay [1] was above 10 µM; in assay [2], 6.31 µM.

Regarding `Cc1nc(-c2cccc(CCOCCC(=O)N(CCNCCc3ccc(O)c4c3OCC(=O)N4)C3CCCCC3)c2)no1` [Example 27, N-Cyclohexyl-N-(2-(2-(5-hydroxy-3-oxo-3,4-dihydro-2H-benzo[b][1,4]oxazin-8-yl)ethylamino)ethyl)-3-(3-(5-methyl-1,2,4-oxadiazol-3-yl)phenethoxy)propanamide Trifluoroacetic Acid Salt], the IC50 is above 10 µM in assay [1] and above 5.01 µM in assay [2].

In the case of `Cn1cc(-c2cc(CCOCCC(=O)N(CCNCCc3ccc(O)c4c3OCC(=O)N4)C3CCCCC3)ccc2F)cn1` [Example 13, N-Cyclohexyl-3-(4-fluoro-3-(1-methyl-1H-pyrazol-4-yl)phenethoxy)-N-(2-(2-(5-hydroxy-3-oxo-3,4-dihydro-2H-benzo[b][1,4]oxazin-8-yl)ethylamino)ethyl)propanamide Trifluoroacetic Acid Salt], the IC50 in assay [1] was 6.31 µM; in assay [2] it was 3.16 µM.

For `Cn1cc(-c2cccc(CCOCCC(=O)N(CCNCCc3ccc(O)c4c3OCC(=O)N4)C3CCCCC3)c2F)cn1` [Example 16, N-Cyclohexyl-3-(2-fluoro-3-(1-methyl-1H-pyrazol-4-yl)phenethoxy)-N-(2-(2-(5-hydroxy-3-oxo-3,4-dihydro-2H-benzo[b][1,4]oxazin-8-yl)ethylamino)ethyl)propanamide Trifluoroacetic Acid Salt], the IC50 was 6.31 µM in assay [1] and 2 µM in assay [2].

`O=C1COc2c(CCNCCN(C(=O)CCOCCc3cccc(-c4nn[nH]n4)c3)C3CCCCC3)ccc(O)c2N1` [Example 15, 3-(3-(2H-Tetrazol-5-yl)phenethoxy)-N-cyclohexyl-N-(2-(2-(5-hydroxy-3-oxo-3,4-dihydro-2H-benzo[b][1,4]oxazin-8-yl)ethylamino)ethyl)propanamide Trifluoroacetic Acid Salt]: the IC50 in assay [1] and in assay [2] was above 10 µM throughout.

For `Cc1nc(-c2cccc(CCOCCC(=O)N(CCNCCc3ccc(O)c4c3OCC(=O)N4)C3CCCCC3)c2)[nH]c1C` [Example 32, N-Cyclohexyl-3-(3-(4,5-dimethyl-1H-imidazol-2-yl)phenethoxy)-N-(2-(2-(5-hydroxy-3-oxo-3,4-dihydro-2H-benzo[b][1,4]oxazin-8-yl)ethylamino)ethyl)propanamide], the figures for the IC50 in assay [1] and in assay [2] were 5.01 µM and 0.631 µM, respectively.

For the molecule `CC(C)n1cc(-c2cccc(CCOCCC(=O)N(CCNCCc3ccc(O)c4c3OCC(=O)N4)C3CCCCC3)c2)nn1` [Example 12, N-Cyclohexyl-N-(2-(2-(5-hydroxy-3-oxo-3,4-dihydro-2H-benzo[b][1,4]oxazin-8-yl)ethylamino)ethyl)-3-(3-(1-isopropyl-1H-1,2,3-triazol-4-yl)phenethoxy)propanamide Trifluoroacetic Acid Salt], the IC50 in assay [1] was above 10 µM; in assay [2] it was 3.98 µM.

For the molecule `Cn1nnc(-c2cccc(CCOCCC(=O)N(CCNCCc3ccc(O)c4c3OCC(=O)N4)C3CCCCC3)c2)n1` [Example 07, N-Cyclohexyl-N-(2-(2-(5-hydroxy-3-oxo-3,4-dihydro-2H-benzo[b][1,4]oxazin-8-yl)ethylamino)ethyl)-3-(3-(2-methyl-2H-tetrazol-5-yl)phenethoxy)propanamide Trifluoroacetic Acid Salt], the IC50 in assay [1] was above 10 µM; in assay [2], 6.31 µM.

For `Cn1cc(-c2cccc(CCOCCC(=O)N(CCNCCc3ccc(O)c4c3OCC(=O)N4)C3CCCCCC3)c2)cn1` [Example 31, N-Cycloheptyl-N-(2-(2-(5-hydroxy-3-oxo-3,4-dihydro-2H-benzo[b][1,4]oxazin-8-yl)ethylamino)ethyl)-3-(3-(1-methyl-1H-pyrazol-4-yl)phenethoxy)propanamide Trifluoroacetic Acid Salt], the IC50 was 5.01 µM in assay [1] and 3.98 µM in assay [2].

As for `O=C1COc2c(CCNCCN(C(=O)CCOCCc3cccc(-c4cnn(CC5CC5)c4)c3)C3CCCC3)ccc(O)c2N1` [Example 19, N-Cyclopentyl-3-(3-(1-(cyclopropylmethyl)-1H-pyrazol-4-yl)phenethoxy)-N-(2-(2-(5-hydroxy-3-oxo-3,4-dihydro-2H -benzo[b][1,4]oxazin-8-yl)ethylamino)ethyl)propanamide Trifluoroacetic Acid Salt], the IC50 in assay [1] was 3.98 µM; in assay [2], 2.51 µM.

In the case of `Cn1nccc1-c1cccc(CCOCCC(=O)N(CCNCCc2ccc(O)c3c2OCC(=O)N3)C2CCCCC2)c1` [Example 03, N-Cyclohexyl-N-(2-(2-(5-hydroxy-3-oxo-3,4-dihydro-2H-benzo[b][1,4]oxazin-8-yl)ethylamino)ethyl)-3-(3-(1-methyl-1H-pyrazol-5-yl)phenethoxy)propanamide Trifluoroacetic Acid Salt], the values for the IC50 in assay [1] and in assay [2] were above 10 µM and 2.51 µM, respectively.

On to `Cn1nnnc1-c1cccc(CCOCCC(=O)N(CCNCCc2ccc(O)c3c2OCC(=O)N3)C2CCCCC2)c1` [Example 08, N-Cyclohexyl-N-(2-(2-(5-hydroxy-3-oxo-3,4-dihydro-2H-benzo[b][1,4]oxazin-8-yl)ethylamino)ethyl)-3-(3-(1-methyl-1H-tetrazol-5-yl)phenethoxy)propanamide Trifluoroacetic Acid Salt], for which the results for the IC50 in assay [1] and in assay [2] were above 10 µM and 3.16 µM, respectively.

Turning to `CCn1cc(-c2cccc(CCOCCC(=O)N(CCNCCc3ccc(O)c4c3OCC(=O)N4)C3CCCCC3)c2)cn1` [Example 28, N-Cyclohexyl-3-(3-(1-ethyl-1H-pyrazol-4-yl)phenethoxy)-N-(2-(2-(5-hydroxy-3-oxo-3,4-dihydro-2H-benzo[b][1,4]oxazin-8-yl)ethylamino)ethyl)propanamide], the IC50 is above 10 µM in assay [1] and above 5.01 µM in assay [2].

`Cc1c(-c2cccc(CCOCCC(=O)N(CCNCCc3ccc(O)c4c3OCC(=O)N4)C3CCCCC3)c2)cnn1C` [Example 37, N-Cyclohexyl-3-(3-(1,5-dimethyl-1H-pyrazol-4-yl)phenethoxy)-N-(2-(2-(5-hydroxy-3-oxo-3,4-dihydro-2H-benzo[b][1,4]oxazin-8-yl)ethylamino)ethyl)propanamide Trifluoroacetic Acid Salt]: the IC50 in assay [1] was above 10 µM; in assay [2], 1.58 µM.
